From patent publication US20090162314A1, “Magnesium-Containing Polymers for the Treatment of Hyperphosphatemia” (priority 2005, published 2009)

Test system: urinary phosphate
Experiment: In vivo phosphate binding: urinary phosphate levels in rats fed test compound in diet
Design: species or system Sprague Dawley (SD) rats
Conditions: SD rats, urine days 5 and 6, cellulose control
Protocol: House male Sprague Dawley (SD) rats were used for the experiments. The rats were placed singly in wire-bottom cages, fed with Purina 5002 diet, and allowed to acclimate for at least 5 days prior to experimental use.
To establish baseline phosphorus excretion, the rats were placed in metabolic cages for 48 hours. Their urine was collected and its phosphorus content analyzed with a Hitachi analyzer to determine phosphorus excretion in mg/day. Any rats with outlying values were excluded; and the remainder of the rats was distributed into groups.
Purina 5002 was used as the standard diet. The compound being tested was mixed with Purina 5002 to result in a final concentration by weight as noted in the table. Cellulose at 0.5% by weight was used as a negative control. For each rat, 200 g of diet was prepared.
Each rat was weighed and placed on the standard diet. After 4 days the standard diet was replaced with the treatment diet (or control diet for the control group). On days 5 and 6, urine samples from the rats at 24 hours (+/−30 minutes) were collected and analyzed. The test rats were again weighed, and any weight loss or gain was calculated. Any remaining food was also weighed to calculate the amount of food consumed per day. A change in phosphorus excretion relative to baseline and cellulose negative control was calculated using Excel program.

[Cl-].[Cl-].[Mg+2] [MgCl2]
% Urinary Phosphate Relative to that of Control Animals (2.38 % of diet): 57.0%

[Mg+2].[O-2] [MgO]
% Urinary Phosphate Relative to that of Control Animals (0.20 % of diet): 61.6%
% Urinary Phosphate Relative to that of Control Animals (0.25 % of diet): 69.3%
% Urinary Phosphate Relative to that of Control Animals (0.30 % of diet): 54.8%
% Urinary Phosphate Relative to that of Control Animals (0.40 % of diet): 26.1%
% Urinary Phosphate Relative to that of Control Animals (1.00 % of diet): 3.6%
